“Also recorded” adds a separate entry of the source.
Experiments:
[1] = system: FRS2α; conditions: unstimulated cells treated with the MEK inhibitor; cited from earlier work
[2] = target: T1, FGFR2 (Mus musculus, UniProt P21803); assay: Blocking ligand-stimulated tyrosine autophosphorylation of FLAG-tagged FGFR2 in 3T3 cells (IP / anti-pTyr immunoblot); format: cell-based; conditions: 3T3 cells pretreated 5 minutes, then ligand stimulated 5 minutes at 37° C.
T1 construct: expressed in transfected cells; host or cells: 3T3 cells
T1 sequence (P21803 22-821): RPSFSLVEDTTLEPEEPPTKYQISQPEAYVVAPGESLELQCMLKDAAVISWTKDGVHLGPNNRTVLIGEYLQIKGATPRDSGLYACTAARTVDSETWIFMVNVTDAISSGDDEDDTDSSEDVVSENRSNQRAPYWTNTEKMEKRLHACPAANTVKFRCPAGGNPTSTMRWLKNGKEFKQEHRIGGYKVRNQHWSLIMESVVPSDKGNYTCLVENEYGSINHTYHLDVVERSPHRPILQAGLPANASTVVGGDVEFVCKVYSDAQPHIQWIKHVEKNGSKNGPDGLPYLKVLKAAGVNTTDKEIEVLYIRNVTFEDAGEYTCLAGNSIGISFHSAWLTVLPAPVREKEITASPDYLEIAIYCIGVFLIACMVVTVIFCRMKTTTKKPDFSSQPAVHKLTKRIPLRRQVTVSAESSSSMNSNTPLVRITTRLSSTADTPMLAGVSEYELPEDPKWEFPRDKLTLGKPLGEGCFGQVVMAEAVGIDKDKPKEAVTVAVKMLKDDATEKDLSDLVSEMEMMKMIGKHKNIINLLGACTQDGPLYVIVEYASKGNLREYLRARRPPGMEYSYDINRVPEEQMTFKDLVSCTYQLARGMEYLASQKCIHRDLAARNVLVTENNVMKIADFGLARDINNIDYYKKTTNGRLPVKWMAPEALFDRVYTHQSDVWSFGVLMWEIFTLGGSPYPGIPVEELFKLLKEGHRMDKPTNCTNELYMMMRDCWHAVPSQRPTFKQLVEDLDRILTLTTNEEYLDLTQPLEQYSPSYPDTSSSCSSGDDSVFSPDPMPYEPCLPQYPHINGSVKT
Description: FIGS. 14A-D show pharmacological intervention in FGFR activation. (C) Structure of [4-(3,5-difluorophenyl)-1H-pyrrolo[2,3-b]pyridin-3-yl](3-methoxyphenyl)methanone (PLX052). (D) 3T3-cells treated for 5 minutes with PLX052 were ligand stimulated for 5 minutes at 37° C. Cell lysates were subjected to immunoprecipitation with anti-FLAG tag antibodies (the expression vector contains a tag in the c-terminus of FGFR2) followed by immunoblotting with either anti-phosphotyrosine (pTyr) or anti-FLAG antibodies. (A & B) Crystals of the apo-FGFR1 minimal kinase domain were grown at 4° C. by vapor diffusion in hanging drops containing 2 uL of 12 mg/mL protein solution and 2 uL of reservoir solution: 16% PEG8K, 0.25 M (NH4)2SO4, 5% ethylene glycol, 10 mM DTT, and 0.1 M Bis Tris, pH 5.8. Native crystals were soaked overnight at 4° C. in mother liquor containing 2 mM PLX052 and 5% DMSO. Complexed crystal belongs to monoclinic space group C2 and has unit cell dimensions a=211.9 Å, b=49.7 Å, c=66.2 Å, and β=107.4°. One cryo-cooled crystal was used for data collection, and data was collected at beamline X26 at Brookhaven National Laboratory. Co-crystallization of the kinase with PLX052 was also performed and found the same structural result. […] The nucleotide binding loop is shown in blue, the hinge region in magenta, and the catalytic core in yellow. (A) The side chains that interact with PLX052. […]

[3] = system: FRS2α; assay: FRS2 phosphorylation in mutant cells expressing constitutively activated Crouzon-like mutant Fgfr2c isoform; format: cell-based; conditions: results not shown
Description: (§1) We first tested the effect of PLX052 in vitro for blocking the activation of FGFR2. Cells were pretreated for 5 minutes with the compound before stimulation. […] We further tested the ability of PLX052 in blocking the FRS2 phosphorylation in mutant cells expressing constitutively activated Crouzon-like mutant Fgfr2c isoform.

[4] = system: MAP Kinase signaling; assay: MAP Kinase signaling in mutant cells expressing constitutively activated Crouzon-like mutant Fgfr2c isoform; format: cell-based; conditions: results not shown
Description: as §1

[5] = system: coronal suture of Crouzon-like mutant mice calvaria; assay: Calvaria organ culture, Crouzon-like mutant mice: coronal suture fusion; format: cell-based, mouse; conditions: for premature fusion of coronal suture of mutant mice calvaria: cultured 21 days
Description: (§2) FIGS. 15A-15D show results of in vitro culture of calvaria with FGFR inhibitor PLX052. Calvaria harvested from the Crouzon mutant and wild type E18.5 day old embryos were cultured in DMEM medium containing 10% FCS supplemented with ascorbic acid at 100 μg/ml and 1 μM PLX052 in 24 well plates. Medium was changed on alternate days along with the inhibitor. Controls were cultured with the vehicle only (0.2% DMSO). Calvaria were cultured for 14 days. After the specified time, calvaria were fixed in 10% buffered formalin, dehydrated followed by infiltration and embedding in methylmethacrylate plastic. Blocks were cut perpendicular to the coronal suture, that passes through the frontal bone (anterior side) and the parietal bone (posterior side). […] sections were collected and stained with toludine blue (FIG. 15.2, left panels). Adjacent sections were stained for minerals of the bone matrix using Van Kossa followed by methyl green counter staining. (A) wild type, and (B), mutant calvaria cultured with the vehicle alone (0.2% DMSO). Note the open suture in the wild type (A) and the fused suture in the mutant (B) cultured calvaria. (C), wild type and (D), mutant cultured with 1 μM PLX052 (in 0.2% DMSO). The left panels [(i), (iii)] are toluidine blue staining and the right panels [(ii), (iv)] are Van Kossa with methyl green counter staining. Lower panels [(iii), (iv)] are the higher magnification of the sutures shown in the boxed region of the upper panels [(i), (ii)].
(§3) PLX052 prevents cranial suture fusion in vitro. Next, we tested the ability of the PLX052 to prevent craniosynostosis in calvaria organ culture from wt and Crouzon-like mutant mice (FIG. 15). […] The calavria organ culture experiments were repeated with two different concentrations of PLX052 (1 μM and 5 μM) and cultured for extended period of time (21 days) to assess the dose response for this inhibitor (see below). […] Higher concentrations of PLX052 (50 μM and above) have caused extensive cell death within 24 hours in cultured cells. […]

[6] = system: wild type suture (calvaria); assay: Calvaria organ culture, wild type mice: suture development; format: cell-based, mouse; conditions: for normal development of the sutures in the wild type: cultured 21 days
Description: as §2, §3

[7] = system: cultured cells; assay: Cell death in cultured cells; format: cell-based; conditions: within 24 hours
Description: PLX052 prevents cranial suture fusion in vitro. Next, we tested the ability of the PLX052 to prevent craniosynostosis in calvaria organ culture from wt and Crouzon-like mutant mice (FIG. 15). […] The calavria organ culture experiments were repeated with two different concentrations of PLX052 (1 μM and 5 μM) and cultured for extended period of time (21 days) to assess the dose response for this inhibitor (see below). […] Higher concentrations of PLX052 (50 μM and above) have caused extensive cell death within 24 hours in cultured cells. Therefore, it is feasible to use limited amount of inhibitor to attenuate the abnormal signaling from the mutant receptors without causing adverse effect on the normal signaling pathways.

[8] = 1 μM, E18.5 calvaria cultured 14 days

COc1cccc(-c2cc(=O)c3ccccc3o2)c1N [PD 0980089]
tyrosine phosphorylation of FRS2α [1]: leads to constitutive tyrosine phosphorylation of FRS2α

COc1cccc(C(=O)c2c[nH]c3nccc(-c4cc(F)cc(F)c4)c23)c1 [PLX052, [4-(3,5-difluorophenyl)-1H-pyrrolo[2,3-b]pyridin-3-yl](3-methoxyphenyl)methanone]
concentration that inhibits FGFR activation to basal levels (tyrosine autophosphorylation of FGFR2) [2]: 10 µM | phosphorylation of FRS2α [3]: significant reduction in the phosphorylation of FRS2α | MAP Kinase signaling [4]: attenuated MAP Kinase signaling | premature fusion of coronal suture in mutant calvaria in vitro [5, 8]: able to rescue the premature fusion of coronal suture; also recorded: open suture in the mutant cultured with PLX052 | premature fusion of coronal suture of mutant mice calvaria ([5]; 1 μM): able to prevent the premature fusion of coronal suture | premature fusion of coronal suture of mutant mice calvaria ([5]; 5 μM): able to prevent the premature fusion of coronal suture | growth of the wild type suture [6, 8]: did not affect the growth of the wild type suture | normal development of the sutures in the wild type ([6]; 1 μM): without affecting the normal development of the sutures in the wild type | normal development of the sutures in the wild type ([6]; 5 μM): without affecting the normal development of the sutures in the wild type | concentration causing extensive cell death [7]: ≥ 50 µM

— patent US7872016B2, “Method for treating skeletal disorders resulting from FGFR malfunction” (Yale University, priority 2004, dated 2011)
